In patent publication US12365674B2, “Inhibitors of histone deacetylase useful for the treatment or prevention of HIV infection” (Merck Sharp & Dohme LLC, priority 2019, dated 2025) one finds IC50 data, which are given here for 18 compounds.

Where only a bound is given, the exact number is not on record here.

The assay deals with T1, human HDAC2 (Homo sapiens, UniProt Q92769).
T1 construct: Full length human HDAC2-FLAG was expressed in baculovirus infected Sf9 cells; host or cells: baculovirus infected Sf9 cells
T1 sequence (Q92769 whole entry): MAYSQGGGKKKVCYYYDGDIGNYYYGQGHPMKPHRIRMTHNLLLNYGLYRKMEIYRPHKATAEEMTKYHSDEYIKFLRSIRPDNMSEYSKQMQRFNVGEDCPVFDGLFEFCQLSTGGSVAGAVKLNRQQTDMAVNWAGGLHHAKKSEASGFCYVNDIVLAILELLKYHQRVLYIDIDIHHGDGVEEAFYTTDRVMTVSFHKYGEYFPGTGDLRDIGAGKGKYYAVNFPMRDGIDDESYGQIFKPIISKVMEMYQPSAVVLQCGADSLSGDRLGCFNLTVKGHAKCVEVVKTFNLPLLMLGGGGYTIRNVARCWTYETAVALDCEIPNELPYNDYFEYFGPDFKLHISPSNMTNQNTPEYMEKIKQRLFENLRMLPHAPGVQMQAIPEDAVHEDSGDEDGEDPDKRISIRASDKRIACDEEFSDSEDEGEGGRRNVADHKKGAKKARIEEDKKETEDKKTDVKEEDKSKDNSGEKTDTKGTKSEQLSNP
Briefly: Human HDAC enzyme inhibitor Fluor-de-Lys assay, HDAC2. Type of assay: biochemical. The settings on record: 1.5 nM enzyme, 40 μM substrate BML-KI104, 3 h pre-incubation, 60 min reaction; read-out: HDAC2_IC50. An excerpt: Recombinant human HDAC8 (catalog number BML-SE145-0100) and HDAC10 (catalog number BML-SE559-0050) enzymes, HDAC substrates BML-KI104 and BML-KI178, and HDAC developer solutions BML-KI105 and BML-KI176 were purchased from Enzo Life Sciences (Farmingdale, NY). Recombinant human HDAC5 and HDAC11 were purchased from BPS Bioscience (San Diego, CA)(catalog numbers 50045 and 50021). Substrate Boc-Lys(TFA)-AMC was obtained from Bachem (Bupendorf, Switzerland) (catalog number 1-1985). HDAC inhibitor suberoylanilide hydroxamic acid (SAHA) was obtained from Indofine (Hillsborough Township, NJ) and trichostatin A (TSA) was obtained from Sigma-Aldrich (St. Louis, MO). […] HEPES pH 8.0 was obtained from Boston BioProducts (Ashland, MA), Tween-20 from Fisher Scientific (Hampton, NH)(catalog number BP337), TCEP from Calbiochem and 7.5% bovine serum albumin (BSA) from Life Technologies (Carlsbad, CA) (catalog number 15260037). 384-well, black assay plates were obtained from Corning (Corning, NY) (catalog number 3575).
Recombinant human HDAC1, HDAC2, and HDAC3/SMRT heterodimer were prepared by Merck Research Laboratories. […] The eluted protein was then passed over an anti-HDAC1 immunoaffinity column to remove any complexes containing HDAC1. […]
The histone deacetylase activities of HDAC1, HDAC2, HDAC3, HDAC6, and HDAC8 were measured in modified Fluor-de-Lys assays in 384-well format. In this assay, HDAC enzymes are initially incubated with an ε-acetyl (or -trifluoroacetyl)-L-lysine-containing substrate with a C-terminal amide having aminomethylcoumarin as the amine component. HDACs cleave the ε-acetyl group, rendering the resulting product susceptible to AMC cleavage by trypsin. The released AMC is then detected by its fluorescence.
The HDAC 1, 2 assays employed buffer A, which contained 20 mM HEPES, pH 8.0, 1 mM MgCl2, 137 mM NaCl, 2.7 mM KCl, 0.05% BSA. The HDAC3/SMRT assay employed buffer B, consisting of 20 mM HEPES, pH 8.0, 1 mM MgCl2, 50 mM NaCl, 2.7 mM KCl, 0.05% BSA, 0.005% Tween 20, and 10 μM IP4. The HDAC6 assay employed buffer C, consisting of 20 mM HEPES, pH 8.0, 1 mM MgCl2, 137 mM NaCl, 2.7 mM KCl, 0.5 mM TCEP (Calbiochem) and 0.05% BSA. The HDAC8 assay employed buffer D, consisting of 20 mM HEPES, pH 8.0, 1 mM MgCl2, 100 mM NaCl, 20 mM KCl, 0.1% n-octyl-β-D-glucoside (Anatrace, Maumee, OH) and 0.05% BSA. All steps were performed at room temperature (23° C.). The assay was performed by pre-incubating serial dilutions of test compounds with the target HDAC prior to initiation with substrate. Each compound was titrated in a 10-point dose response, using a 1:3 fold dilution scheme, with 0.15 ul of solution added by ECHO555 to the plate, followed by the addition of 20 μl of the appropriate HDAC isoform diluted in appropriate assay buffer. […] Final conditions used for each assay were: 1. HDAC 1, 0.3 nM total enzyme, 20 μM substrate BML-K1104; 2. HDAC 2, 1.5 nM total enzyme, 40 μM substrate BML-K1104; 3. HDAC 3/SMRT, 0.3 nM total enzyme, 20 μM substrate BML-K1104; 4. HDAC 6, 1.3 nM total enzyme, 2.5 μM substrate BML-K1104; 5. HDAC 8, 1.3 nM total enzyme, 200 μM substrate BML-K1178; the final high dose of test compound was 30 μM. […] The reactions were stopped and developed by addition of 30 ul of HDAC developer solution containing a saturating level of HDAC inhibitor as follows: 1.
For the compound `COc1nc2ccccc2cc1-c1cnc([C@H](COCCCC(=O)c2ccon2)NC(=O)CN(C)C)[nH]1` [Compound 14, N-{(1R)-2-(4-isoxazol-3-yl-4-oxobutoxy)-1-[5-(2-methoxyquinolin-3-yl)-1H-imidazol-2-yl]ethyl}-N~2~,N~2~- dimethylglycinamide], the IC50 was determined as 0.0032 µM. Then `COc1nc2ccccc2cc1-c1cnc([C@H](COCCCC(=O)c2ncco2)NC(=O)CN(C)C)[nH]1` [Compound 13, N-{(1R)-1-[5-(2-methoxyquinolin-3-yl)-1H-imidazol-2-yl]-2-[4-(1,3-oxazol-2-yl)-4-oxobutoxy]ethyl}-N~2~,N~2~- dimethylglycinamide], with 0.0144 µM; and `COc1nc2ccccc2cc1-c1cnc([C@H](COCCCC(=O)c2ncco2)NC(=O)C23CCN(CC2)CC3)[nH]1` [Compound 12, N-{(1R)-1-[5-(2-methoxyquinolin-3-yl)-1H-imidazol-2-yl]-2-[4-(1,3-oxazol-2-yl)-4-oxobutoxy]ethyl}-1-azabicyclo[2.2.2]octane-4-carboxamide], with 0.0297 µM. To `COc1cc2nc(C)ccc2cc1-c1cnc([C@H](COCCCC(=O)c2cc(C)on2)NC(=O)C2CN(C)C2)[nH]1` [Compound 19, N-{(1R)-1-[5-(7-methoxy-2-methylquinolin-6-yl)-1H-imidazol-2-yl]-2-[4-(5-methylisoxazol-3-yl)-4-oxobutoxy]ethyl}-1-methylazetidine-3-carboxamide] belongs 0.008 µM; to `CN1CC(C(=O)N[C@@H](COCCCC(=O)c2ccon2)c2ncc(-c3ccccc3F)[nH]2)C1` [Compound 15, N-[(1R)-1-[5-(2-fluorophenyl)-1H-imidazol-2-yl]-2-(4-isoxazol-3-yl-4-oxobutoxy)ethyl]-1-methylazetidine-3-carboxamide], 0.0313 µM; to `CN1CC(C(=O)N[C@@H](COCCCC(=O)c2ccon2)c2[nH]c(-c3ccc(F)cc3)nc2Cl)C1` [Compound 16, N-[(1R)-1-[4-chloro-2-(4-fluorophenyl)-1H-imidazol-5-yl]-2-(4-isoxazol-3-yl-4-oxobutoxy)ethyl]-1-methylazetidine-3-carboxamide], 0.0567 µM.

As for `COc1cc2nc(C)ccc2cc1-c1cnc([C@H](COCCCC(=O)c2cc(C)on2)NC(=O)[C@H]2CC23CCN(C)CC3)[nH]1` [Compound 20, (1S)-N-{(1R)-1-[5-(7-methoxy-2-methylquinolin-6-yl)-1H-imidazol-2-yl]-2-[4-(5-methylisoxazol-3-yl)-4-oxobutoxy]ethyl}-6-methyl-6-azaspiro[2.5]octane-1-carboxamide], the IC50 was found to be 0.0038 µM.

Regarding `CCC(=O)CCCOC[C@H](NC(=O)c1cncs1)c1ncc(-c2cc3ccccc3nc2OC)[nH]1` [Compound 5, N-{(1R)-1-[5-(2-methoxyquinolin-3-yl)-1H-imidazol-2-yl]-2-[(4-oxohexyl)oxy]ethyl}-1,3-thiazole-5-carboxamide], the IC50 was determined as 1.16 µM.

In the case of `CN1CCC2(CC1)C[C@@H]2C(=O)N[C@@H](COCCCC(=O)c1ccon1)c1[nH]c(-c2ccc(F)cc2)nc1Cl` [Compound 18, (1S)-N-[(1R)-1-[4-chloro-2-(4-fluorophenyl)-1H-imidazol-5-yl]-2-(4-isoxazol-3-yl-4-oxobutoxy)ethyl]-6-methyl-6-azaspiro[2.5]octane-1-carboxamide], the IC50 was 0.0081 µM. To `Cc1ccc2cc(-c3cnc([C@H](CSCCCC(=O)c4ncco4)NC(=O)[C@H]4CC45CCN(C)CC5)[nH]3)ccc2n1` [Compound 21, (1S)-6-methyl-N-[(1R)-1-[5-(2-methylquinolin-6-yl)-1H-imidazol-2-yl]-2-{[4-(1,3-oxazol-2-yl)-4-oxobutyl]sulfanyl}ethyl]-6-azaspiro[2.5]octane-1-carboxamide] belongs 0.0029 µM; to `COc1nc2ccccc2cc1-c1cnc([C@@H](N)COCCCC(=O)c2ncco2)[nH]1` [Compound 1, (R)-4-(2-amino-2-(5-(2-methoxyquinolin-3-yl)-1H-imidazol-2-yl)ethoxy)-1-(oxazol-2-yl)butan-1-one], 1 µM; to `N[C@@H](COCCCC(=O)c1ccon1)c1ncc(-c2ccccc2F)[nH]1` [Compound 2, (R)-4-(2-amino-2-(5-(2-fluorophenyl)-1H-imidazol-2-yl)ethoxy)-1-(isoxazol-3-yl)butan-1-one], not below 0.9 µM. For `CCC(=O)CCCOC[C@H](NC(=O)C12CCN(CC1)CC2)c1ncc(-c2cc3ccccc3nc2OC)[nH]1` [Compound 6, N-{(1R)-1-[5-(2-methoxyquinolin-3-yl)-1H-imidazol-2-yl]-2-[(4-oxohexyl)oxy]ethyl}-1-azabicyclo[2.2.2]octane-4-carboxamide], the IC50 was 0.925 µM. In the case of `CN(C)CC(=O)N[C@@H](COCCCC(=O)c1ccon1)c1[nH]c(-c2ccc(F)cc2)nc1Cl` [Compound 17, N-[(1R)-1-[4-chloro-2-(4-fluorophenyl)-1H-imidazol-5-yl]-2-(4-isoxazol-3-yl-4-oxobutoxy)ethyl]-N~2~,N~2~- dimethylglycinamide], the IC50 was 0.106 µM. To `COc1nc2ccccc2cc1-c1cnc([C@H](COCCCC(=O)c2ncco2)NC(=O)c2cncs2)[nH]1` [Compound 10, N-{(1R)-1-[5-(2-methoxyquinolin-3-yl)-1H-imidazol-2-yl]-2-[4-(1,3-oxazol-2-yl)-4-oxobutoxy]ethyl}-1,3-thiazole-5-carboxamide] belongs 0.0259 µM; to `CNC(=O)C(=O)CCCOC[C@H](NC(=O)C12CCN(CC1)CC2)c1ncc(-c2cc3ccccc3nc2OC)[nH]1` [Compound 9, N-[(1R)-1-[5-(2-methoxyquinolin-3-yl)-1H-imidazol-2-yl]-2-{[5-(methylamino)-4,5-dioxopentyl]oxy}ethyl]-1-azabicyclo[2.2.2]octane-4-carboxamide], 0.0015 µM; to `CNC(=O)C(=O)CCCOC[C@H](NC(=O)c1cncs1)c1ncc(-c2cc3ccccc3nc2OC)[nH]1` [Compound 8, N-[(1R)-1-[5-(2-methoxyquinolin-3-yl)-1H-imidazol-2-yl]-2-{[5-(methylamino)-4,5-dioxopentyl]oxy}ethyl]-1,3-thiazole-5-carboxamide], 0.0025 µM.

In the case of `COc1nc2ccccc2cc1-c1cnc([C@H](COCCCC(=O)c2ncco2)NC(=O)[C@H]2CC23CCN(C)CC3)[nH]1` [Compound 11, (1S)-N-{(1R)-1-[5-(2-methoxyquinolin-3-yl)-1H-imidazol-2-yl]-2-[4-(1,3-oxazol-2-yl)-4-oxobutoxy]ethyl}-6-methyl-6-azaspiro[2.5]octane-1-carboxamide], the IC50 worked out at 0.0097 µM.
